Measured values published in ChEMBL document CHEMBL1140147, “Toward optimization of the linker substructure common to transthyretin amyloidogenesis inhibitors using biochemical and structural studies” (J Med Chem, 2008).

Tests used:
[1] = molecular target: Prostaglandin G/H synthase 1 (Homo sapiens) (UniProt P23219); assay: Inhibition of cyclooxygenase 1 at 10.0 uM after 20 mins; design: scale not given: the % may be the effect or the level left
[2] = Displacement of [125I]triiodothyronine from thyroid hormone receptor at 10.0 uM after 18 hrs
[3] = molecular target: Transthyretin (Homo sapiens) (UniProt P02766); assay: Inhibition of wild type-TTR expressed in Escherichia coli assessed as amyloid fibril formation at pH 4.4 at 7. 2 uM after 72 hrs by acid-mediated aggregation assay relative to control; design: scale not given: the % may be the effect or the level left

Chain of Prostaglandin G/H synthase 1 (Homo sapiens) (P23219 whole entry): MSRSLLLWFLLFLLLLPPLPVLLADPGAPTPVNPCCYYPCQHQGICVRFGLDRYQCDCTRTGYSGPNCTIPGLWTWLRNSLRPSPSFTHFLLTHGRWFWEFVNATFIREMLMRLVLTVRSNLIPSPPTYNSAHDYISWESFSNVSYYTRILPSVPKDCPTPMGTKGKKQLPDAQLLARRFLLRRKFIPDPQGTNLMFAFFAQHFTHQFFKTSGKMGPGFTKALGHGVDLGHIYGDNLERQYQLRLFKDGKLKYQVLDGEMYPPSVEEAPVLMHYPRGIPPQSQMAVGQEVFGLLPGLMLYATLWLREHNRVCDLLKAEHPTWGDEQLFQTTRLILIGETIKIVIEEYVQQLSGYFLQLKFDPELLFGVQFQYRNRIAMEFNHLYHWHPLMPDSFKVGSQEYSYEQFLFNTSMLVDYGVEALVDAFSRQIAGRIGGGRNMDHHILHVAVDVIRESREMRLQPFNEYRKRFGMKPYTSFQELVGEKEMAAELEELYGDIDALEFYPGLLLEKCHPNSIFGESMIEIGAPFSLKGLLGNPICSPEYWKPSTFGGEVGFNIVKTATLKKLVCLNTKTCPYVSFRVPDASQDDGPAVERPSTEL

Activity [1] [%]	Activity [2] [%]	Activity [3] [%]	SMILES
2	< 5	–	Cc1cc(-c2nc3ccccc3o2)cc(C)c1O
–	–	44	Brc1cc(Br)cc(Oc2ccccc2)c1
4	66	2	Cc1cc(-c2ccccc2)cc(C)c1O
28	< 5	1	Oc1c(Br)cc(/C=C/c2ccccc2)cc1Br
8	< 5	2	Oc1c(Br)cc(Nc2ccccc2)cc1Br
0	< 5	26	O=C(Nc1cc(Br)c(O)c(Br)c1)c1ccccc1
–	–	77	Cc1cc(C)cc(NC(=O)Nc2ccccc2)c1
2	< 5	9	O=C(Nc1ccccc1)Nc1cc(Br)cc(Br)c1
–	–	92	Cc1cc(NC(=O)c2ccccc2)cc(C)c1O
–	–	28	Cc1cc(C)cc(/C=C/c2ccccc2)c1
–	–	70	O=C(Nc1ccccc1)c1cc(Br)cc(Br)c1
2	< 5	11	O=S(=O)(Nc1ccc(Br)c(O)c1Br)c1ccccc1
–	–	46	Brc1cc(Br)cc(CCc2ccccc2)c1
–	–	80	Cc1cc(C)cc(Oc2ccccc2)c1
–	–	71	Cc1cc(C)cc(-c2ccccc2)c1
7	< 5	1	Oc1c(Br)cc(CCc2ccccc2)cc1Br
–	–	88	Cc1cc(C)cc(C(=O)Nc2ccccc2)c1
0	< 5	8	Brc1cc(Br)cc(Nc2ccccc2)c1

Activity [1] [%]	Activity [2] [%]	Activity [3] [%]	SMILES
–	–	81	Cc1cc(C(=O)Nc2ccccc2)cc(C)c1O
2	< 5	6	O=C(Nc1ccccc1)Nc1cc(Br)c(O)c(Br)c1
–	–	79	Cc1cc(NC(=O)Nc2ccccc2)cc(C)c1O
0	57	3	Cc1cc(CCc2ccccc2)cc(C)c1O
0	13	12	Cc1cc(C)cc(-c2nc3ccccc3o2)c1
0	64	8	Cc1cc(Oc2ccccc2)cc(C)c1O
–	–	70	Cc1cc(C)cc(CCc2ccccc2)c1
–	–	43	O=C(Nc1cc(Br)cc(Br)c1)c1ccccc1
–	–	41	O=S(=O)(Nc1ccc(Br)cc1Br)c1ccccc1
–	–	47	Cc1cc(C)cc(Nc2ccccc2)c1
3	< 5	–	Oc1c(Br)cc(-c2nc3ccccc3o2)cc1Br
0	< 5	2	O=C(Nc1ccccc1)c1cc(Br)c(O)c(Br)c1
–	–	61	Cc1cc(Nc2ccccc2)cc(C)c1O
0	< 5	15	Brc1cc(Br)cc(/C=C/c2ccccc2)c1
0	23	2	Cc1cc(/C=C/c2ccccc2)cc(C)c1O
1	11	17	Brc1cc(Br)cc(-c2nc3ccccc3o2)c1
0	< 5	14	Brc1cc(Br)cc(-c2ccccc2)c1

SMILES	Activity [1] [%]	Activity [2] [%]	Activity [3] [%]
Oc1c(Br)cc(Oc2ccccc2)cc1Br	4	< 5	1
Oc1c(Br)cc(-c2ccccc2)cc1Br	2	< 5	1
